Laboratory results taken from patent US6969609B1 (priority 1998, dated 2005).

System: BMDC
Type: cell-based, C57BL/6 mice

Question: TNF-α was tested. Which “B7-1 % positive cells” value did it give?
Answer: The value was 85%.

Question: What about the “B7-1 MFI” value of the same substance?
Answer: Its value is “(320)”.

Question: And the “B7-2 % positive cells” value?
Answer: Its value is 71%.

Question: And the “B7-2 MFI” value?
Answer: Its value is “(412)”.

Question: What about the “CD11b % positive cells” value of the same substance?
Answer: The value was 84%.

Question: What about the “CD11b MFI” value of the same substance?
Answer: Its value is “(729)”.

Question: What about the “CD11c % positive cells” value of the same substance?
Answer: Its value is 20%.

Question: What about the “CD11c MFI” value of the same substance?
Answer: The value was “(149)”.

Question: And the “CD40 % positive cells” value?
Answer: Its value is 65%.

Question: And the “CD40 MFI” value?
Answer: The value was “(159)”.

Question: And the “H-2K^b/D^b % positive cells” value?
Answer: Its value is 91%.

Question: And the “H-2K^b/D^b MFI” value?
Answer: The value was “(195)”.

Question: And the “I-A^b % positive cells” value?
Answer: The value was 95%.

Question: What about the “I-A^b MFI” value of the same substance?
Answer: Its value is “(1189)”.

Question: What about the “ICAM-1 % positive cells” value of the same substance?
Answer: Its value is 97%.

Question: What about the “ICAM-1 MFI” value of the same substance?
Answer: Its value is “(421)”.

Question: What about the “LFA-3 % positive cells” value of the same substance?
Answer: The value was 87%.

Question: And the “LFA-3 MFI” value?
Answer: Its value is “(249)”.
